# Read-outs that look alike come from different tables or passages of the source.
# Key:
# SARS-CoV-2 [1] = test: microbe, parasite or virus in culture; type: cell-based; conditions: Severe acute respiratory syndrome coronavirus 2, Vero, read-out: SARS-CoV-2 virus 50% inhibitory ability (IC50 value)
# Vero cell lines = test: Cell viability of Vero cells in the SARS-CoV-2 inhibition experiment (Example 2)
# SARS-CoV-2 [2] = test: microbe, parasite or virus in culture; type: cell-based
# in vitro = conditions: African green monkey
compound,measurement,setting,value
"COc1cc2cc3c(c(-c4cc5c(cc4O)OCO5)c2cc1OC)C(=O)OC3 [6′ hydroxyl justicidin-B, 9-(6-hydroxy-benzo[1,3]dioxol-5-yl)-6,7-dimethoxy-3H-naphtho[2,3-c]furan-1-one]",IC50,SARS-CoV-2 [1],50 nM
same,"Cell viability (%, average ± standard deviation)",Vero cell lines; concentration 0.10 uM,100.66 ± 0.73%
same,"Cell viability (%, average ± standard deviation)",Vero cell lines; concentration 0.20 uM,104.63 ± 0.44%
same,"Cell viability (%, average ± standard deviation)",Vero cell lines; concentration 0.39 uM,105.17 ± 0.85%
same,"Cell viability (%, average ± standard deviation)",Vero cell lines; concentration 1.56 uM,107.86 ± 0.60%
same,"Cell viability (%, average ± standard deviation)",Vero cell lines; concentration 3.13 uM,105.46 ± 0.38%
same,"Cell viability (%, average ± standard deviation)",Vero cell lines; concentration 6.25 uM,103.44 ± 1.31%
same,"Cell viability (%, average ± standard deviation)",Vero cell lines; concentration 12.5 uM,101.11 ± 0.36%
same,"Cell viability (%, average ± standard deviation)",Vero cell lines; concentration 25 uM,97.80 ± 1.29%
same,"Cell viability (%, average ± standard deviation)",Vero cell lines; concentration 50 uM,93.38 ± 0.72%
same,IC50,"SARS-CoV-2 [2]; Severe acute respiratory syndrome coronavirus 2, Vero, 24 h, read-out: SARS-CoV-2 virus 50% inhibitory ability (IC50 value)",1060 nM
same,inhibition at 0.1 µM,"SARS-CoV-2 [2]; Severe acute respiratory syndrome coronavirus 2, concentration 0.10 uM, Vero cells, 24 h, read-out: SARS-CoV-2 virus inhibitory ability (%, average ± standard deviation)",1.45 ± 1.16%
same,inhibition at 0.2 µM,"SARS-CoV-2 [2]; Severe acute respiratory syndrome coronavirus 2, concentration 0.20 uM, Vero cells, 24 h, read-out: SARS-CoV-2 virus inhibitory ability (%, average ± standard deviation)",-1.71 ± 4.34%
same,inhibition at 0.39 µM,"SARS-CoV-2 [2]; Severe acute respiratory syndrome coronavirus 2, concentration 0.39 uM, Vero cells, 24 h, read-out: SARS-CoV-2 virus inhibitory ability (%, average ± standard deviation)",3.39 ± 3.95%
same,inhibition at […],"SARS-CoV-2 [2]; Severe acute respiratory syndrome coronavirus 2, concentration 0.78 uM, Vero cells, 24 h, read-out: SARS-CoV-2 virus inhibitory ability (%, average ± standard deviation)",35.6 ± 0.69%
same,inhibition at 1.56 µM,"SARS-CoV-2 [2]; Severe acute respiratory syndrome coronavirus 2, concentration 1.56 uM, Vero cells, 24 h, read-out: SARS-CoV-2 virus inhibitory ability (%, average ± standard deviation)",68.6 ± 3.12%
same,inhibition at 3.13 µM,"SARS-CoV-2 [2]; Severe acute respiratory syndrome coronavirus 2, concentration 3.13 uM, Vero cells, 24 h, read-out: SARS-CoV-2 virus inhibitory ability (%, average ± standard deviation)",95.86 ± 0.86%
same,inhibition at 6.25 µM,"SARS-CoV-2 [2]; Severe acute respiratory syndrome coronavirus 2, concentration 6.25 uM, Vero cells, 24 h, read-out: SARS-CoV-2 virus inhibitory ability (%, average ± standard deviation)",99.74 ± 0.24%
same,inhibition at 12.5 µM,"SARS-CoV-2 [2]; Severe acute respiratory syndrome coronavirus 2, concentration 12.5 uM, Vero cells, 24 h, read-out: SARS-CoV-2 virus inhibitory ability (%, average ± standard deviation)",98.9 ± 1.49%
same,inhibition at 25 µM,"SARS-CoV-2 [2]; Severe acute respiratory syndrome coronavirus 2, concentration 25 uM, Vero cells, 24 h, read-out: SARS-CoV-2 virus inhibitory ability (%, average ± standard deviation)",99.79 ± 0.6%
same,inhibition at 50 µM,"SARS-CoV-2 [2]; Severe acute respiratory syndrome coronavirus 2, concentration 50 uM, Vero cells, 24 h, read-out: SARS-CoV-2 virus inhibitory ability (%, average ± standard deviation)",97.8 ± 2.47%
same,SARS-CoV-2 inhibitory ability (in words),"SARS-CoV-2 [2]; Vero cells, comparison at IC50 values with Remdesivir, Lopinavir and Chloroquine",remarkably more excellent
same,CC50,in vitro,314000 nM
